One molecule from article PMC11413854, “Reversible Control of Native GluN2B-Containing NMDA Receptors with Visible Light” (ACS Chemical Neuroscience, 2024) can be followed below.

“Also recorded” adds a separate entry of the source. Where two headings read alike, the source gives them in different places.

This test concerns the target T1, GluN1/GluN2B NMDA receptors (UniProt P35439+Q01097).
T1 construct: expressed in transfected cells; host or cells: Xenopus laevis oocytes (nuclear cDNA injection)
As to the kind of experiment: TEVC electrophysiology on Xenopus oocytes expressing wt GluN1/GluN2B NMDARs. Type of test: cell-based, rat GluN1, mouse GluN2B. To be noted: for remaining activity at 0.01 µM / remaining activity at 0.025 µM / remaining activity at 0.05 µM / remaining activity at 0.1 µM / remaining activity at 0.15 µM: GluN1/GluN2B wt, read-out: Relative current (IOpto/I0); for remaining activity at 0.01 µM: 0.010 µM; for remaining activity at 0.05 µM: 0.050 µM; for remaining activity at 0.1 µM: 0.100 µM; for remaining activity at 0.15 µM: 0.150 µM.

T1 sequence (Q01097 27-1482, other chains not shown): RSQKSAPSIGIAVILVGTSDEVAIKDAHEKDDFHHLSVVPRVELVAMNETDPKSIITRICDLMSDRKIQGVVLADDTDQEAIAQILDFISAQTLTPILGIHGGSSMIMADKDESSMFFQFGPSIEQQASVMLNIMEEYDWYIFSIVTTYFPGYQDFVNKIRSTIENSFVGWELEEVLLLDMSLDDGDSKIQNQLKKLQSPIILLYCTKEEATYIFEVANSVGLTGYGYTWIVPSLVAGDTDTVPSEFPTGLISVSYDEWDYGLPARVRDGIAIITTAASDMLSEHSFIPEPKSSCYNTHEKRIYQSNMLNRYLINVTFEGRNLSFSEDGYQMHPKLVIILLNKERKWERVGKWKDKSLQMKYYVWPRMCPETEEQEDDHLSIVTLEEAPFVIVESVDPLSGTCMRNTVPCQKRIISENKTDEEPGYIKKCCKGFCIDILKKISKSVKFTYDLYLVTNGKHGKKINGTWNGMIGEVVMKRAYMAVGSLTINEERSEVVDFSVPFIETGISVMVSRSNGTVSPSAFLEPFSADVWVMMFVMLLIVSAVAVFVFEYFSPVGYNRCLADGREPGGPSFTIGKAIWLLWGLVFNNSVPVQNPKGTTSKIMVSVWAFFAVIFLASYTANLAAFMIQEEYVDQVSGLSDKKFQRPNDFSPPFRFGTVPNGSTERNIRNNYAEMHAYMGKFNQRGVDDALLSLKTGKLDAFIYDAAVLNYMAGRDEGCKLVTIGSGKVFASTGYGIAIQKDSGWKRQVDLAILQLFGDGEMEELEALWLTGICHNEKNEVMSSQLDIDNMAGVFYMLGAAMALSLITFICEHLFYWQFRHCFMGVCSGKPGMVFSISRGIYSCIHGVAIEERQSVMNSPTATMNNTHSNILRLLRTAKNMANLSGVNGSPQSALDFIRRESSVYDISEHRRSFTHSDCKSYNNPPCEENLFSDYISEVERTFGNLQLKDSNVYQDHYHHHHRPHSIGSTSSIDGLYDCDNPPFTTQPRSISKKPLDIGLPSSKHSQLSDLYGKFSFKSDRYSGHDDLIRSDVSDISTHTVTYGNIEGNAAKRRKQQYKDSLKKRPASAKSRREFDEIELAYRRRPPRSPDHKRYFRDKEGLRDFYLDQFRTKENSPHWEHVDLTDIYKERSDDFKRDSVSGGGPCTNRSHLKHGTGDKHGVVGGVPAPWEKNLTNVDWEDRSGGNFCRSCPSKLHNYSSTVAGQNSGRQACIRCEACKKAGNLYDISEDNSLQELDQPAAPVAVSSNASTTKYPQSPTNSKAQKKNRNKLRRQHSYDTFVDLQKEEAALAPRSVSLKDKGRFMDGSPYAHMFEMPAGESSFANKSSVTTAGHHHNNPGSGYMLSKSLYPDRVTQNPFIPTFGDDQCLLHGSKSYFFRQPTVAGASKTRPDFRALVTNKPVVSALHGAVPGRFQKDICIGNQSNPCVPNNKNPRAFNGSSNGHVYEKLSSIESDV

On to `CS(=O)(=O)Nc1ccc2nc(Cc3ccc(/N=N/c4ccccc4)cc3)[nH]c2c1` [OptoNAM-4, (E)-N-(2-(4-(phenyldiazenyl)benzyl)-1H-benzo[d]imidazol-6-yl)methanesulfonamide], for which, for the setting “365 nm PSS, Xenopus oocytes, read-out: IC50 on GluN1/GluN2B receptors, pre-illuminated with 365 nm”, the IC50 worked out at 31 ± 29 nM. For the setting “365 nm PSS”, the remaining activity at 0.01 µM is 69.6%, the remaining activity at 0.025 µM was found to be 50.1%, the remaining activity at 0.05 µM came out at 44.8% and the remaining activity at 0.1 µM was 34%. In addition, the remaining activity at 0.15 µM (365 nm PSS) is 21%. Where the note is “dark PSS (trans)”, the remaining activity at 0.01 µM was determined as 68.3%, the remaining activity at 0.025 µM was determined as 45.6%, the remaining activity at 0.05 µM was found to be 39% and the remaining activity at 0.1 µM stood at 29.7%. Besides, where the note is “dark PSS (trans)”, the remaining activity at 0.15 µM was 15%. The IC50 (dark PSS (trans), Xenopus oocytes, read-out: IC50 on GluN1/GluN2B receptors in the dark) was determined as 24 ± 26 nM. For the same molecule, the “photodependence of activity on GluN1/GluN2B NMDARs” value (dark vs 365 nm PSS) was “not photodependent; also recorded: did not display any photodependence of activity”. In addition, the “UV/dark IC50 ratio (365 nm PSS vs dark)” value (preilluminated in solution, Xenopus oocytes) amounted to 1.3 fold.
